# Entries after “also recorded” stand apart in the source; their conditions may differ.
# Legend:
# [1] = tested on: CD44+/CD24- cell population of MC1, UM2, UM3 xenografts; assay: CD44+/CD24- cells in treated tumors (flow cytometry); parameters: species or system NOD/SCID mice; conditions: mouse, in vivo
# Protocol: (§1) Animal model. […] Cells from these tumors were transplanted orthotopically in the humanized cleared fat-pad of NOD/SCID mice, without cultivation in vitro. […] 50,000 cells from each xenotransplants were injected in the humanized fat pad of NOD/SCID mice and monitored the tumor growth. […] The animals were euthanized when the tumors were approximately 1.5 cm in the largest diameter, to avoid tumor necrosis and in compliance with regulations for use of vertebrate animal in research. A portion of each fat pad injected was fixed in formalin and embedded in paraffin for histological analysis. The rest of the tumor cells were re-implantated into secondary NOD/SCID mice. Serial dilutions of cells were utilized for the re-implantation with injection of 10,000, 1,000, and 100 cells for each treated tumor.
# (§2) Flow cytometry analysis. […] CD95/FAS staining were performed utilizing an anti-CD95 labeled APC (1:20, BD biosciences). […] Fresh cells were stained with 1 μg/ml PI (Sigma) for 5 min for viability.
# [2] = tested on: normal mammary epithelial cells from reduction mammoplasties; assay: MTT assay on normal mammary epithelial cells; assay type: cell-based, human; conditions: adherent; five days; repertaxin 100 nM or 500 nM, FAS agonist 500 ng/ml
# Protocol: Dissociation of mammary tissue. 100-200 g of normal breast tissue from reduction mammoplasties was minced with scalpels, dissociated enzymatically, and single cells were cultured in suspension to generate mammospheres or on a collagen substratum in adherent condition to induce cellular differentiation (Dontu et al. Genes Dev. 17:1253-1270, herein incorporated by reference in its entirety).
# Cell viability. […] After one day, treatment with repertaxin was started. […]. […] Nuclei were counterstained with DAPI/antifade (Invitrogen).
# [3] = tested on: CXCR1-positive, CXCR1-negative and unsorted populations of SUM159 cells; assay: MTT assay on flow sorted CXCR1-positive, CXCR1-negative and unsorted populations; assay type: cell-based, human; conditions: for cell viability of the unsorted / unseparated population: SUM159 cells
# Protocol: Cell viability. […] Nuclei were counterstained with DAPI/antifade (Invitrogen).
# as §2
# phospho-FAK = assay: Immunohistochemistry of phospho-FAK in xenotransplants; parameters: species or system NOD/SCID mice; conditions: mouse, in vivo
# Protocol: Immunostaining. For immunofluorescent staining, sorted CXCR1-positive cells were fixed with 95% methanol at −20° C. for 10 minutes. Cells were rehydrated in PBS and incubated with respective antibodies at room temperature for 1 hour. Primary antibodies used were P-FAK (1:50, Cell Signaling Technology), P-AKT (1:300, Cell Signaling Technology), and FOXO3a (1:250, Cell Signaling Technology). Slides were then washed and incubated 30 minutes with PE conjugated secondary antibodies (Jackson labs). The nuclei were counterstained with DAPI/antifade (Invitrogen) and coverslipped. […] Immunohistochemistry for the detection of ALDH1 (1:100, BD biosciences), P-FAK, P-AKT, FOXO3a expression was done on paraffin section (Ginestier et al. Am. J Pathol. 161:1223-1233, herein incorporated by reference in its entirety). Staining was done utilizing the Histostainplus kit (Zymed laboratories). Diaminobenzidine (DAB) or 3-amino-9-ethylcarbazole (AEC) was used as chromogen and sections were counterstained with hematoxylin.
# [4] = tested on: FAK Tyr397 and AKT Ser473 phosphorylation; assay: Western blotting of FAK/AKT activation in MDA-MB-453; assay type: cell-based, human
# Protocol: Western blotting. Cells were lysed in a laemmli buffer and loaded onto SDS-polyacrylamide gels. Blots were incubated with the respective primary antibodies diluted in TBST (containing 0.1% Tween20 and 2% BSA) either overnight at 4o, or 2 hours at room temperature. Blots were washed and incubated with appropriate secondary antibodies (GE Healthcare, UK) and detected using SuperSignal West Pico Chemiluminescent Substrate (Pierce).
# [5] = tested on: ALDEFLUOR-positive population of MDA-MB-453; assay: ALDEFLUOR assay on MDA-MB-453 cells in vitro; assay type: cell-based, human; conditions: three days, repertaxin 100 nM, antibodies 10 μg/ml
# Protocol: ALDEFLUOR assay. […] In order to eliminate cells of mouse origin from the xenotransplanted tumors, cell population was stained with an anti-H2Kd antibody (BD biosciences, 1/200, 20 min on ice) followed by staining with a secondary antibody labeled with phycoerythrin (PE) (Jackson labs, 1/250, 20 min on ice).
# SUM159 cells = assay: Metastasis formation after intracardiac injection of SUM159 cells (bioluminescence); assay type: in vivo, NOD/SCID mice; conditions: 250,000 cells intracardiac, repertaxin 15 mg/kg s.c. twice a day 28 days vs saline
# Protocol: A SUM159 cell line was infected with a lentivirus expressing luciferase and inoculated 250,000 luciferase infected cells in the heart of NOD/SCID mice. The mice were organized into two groups.
# Intracardiac inoculation. Six weeks-old NOD/SCID mice were anesthetized with 2% isofluorane/air mixture and injected in the heart left ventricle with 250,000 cells in 100 μL of sterile Dulbecco's PBS lacking Ca2+ and Mg2+. […] Twelve hours after intracardiac injections, mice were begun on twice per day repertaxin injections or saline for the controls.
# Bioluminescence detection. Baseline bioluminescence was assessed before inoculation and each week thereafter inoculations. Bioluminescence detection procedures was performed as previously described (Charafe-Jauffret et al. Cancer Res. 69:1302-1313, herein incorporated by reference in its entirety). Normalized photon flux represents the ratio of the photon flux detected each week after inoculations and the photon flux detected before inoculation.
# [6] = tested on: cells from primary tumors SUM159, MC1, UM2, UM3; assay: Re-implantation of cells from treated tumors into secondary mice; assay type: in vivo, NOD/SCID mice; conditions: for secondary tumor formation / regrowth from serial dilutions of treated primary tumors: secondary NOD/SCID mice, no further treatment
# Protocol: as §1, with “Serial dilutions of cells were utilized for the re-implantation with injection of 10,000, 1,000, and 100 cells for each treated tumor.” left out
# [7] = tested on: SUM159 cell line and human breast cancer xenografts MC1, UM2, UM3; assay: Tumor growth of breast cancer xenografts in the mammary fat pad; assay type: in vivo, NOD/SCID mice; conditions: repertaxin 15 mg/Kg s.c. twice a day 28 days, docetaxel 10 mg/Kg i.p. once a week, start at tumor size about 4 mm
# Protocol: For each sample, 50,000 cells were injected into the mammary fat pad of NOD-SCID mice which were monitored for tumor size. Injections were started when the tumor size was about 4 mm.
# as §1
smiles,measurement,setting,value
CC(C)Cc1ccc([C@@H](C)C(=O)NS(C)(=O)=O)cc1 [Repertaxin],percent of CD44+/CD24- cells in residual tumors,[1],reduction
same,viability of normal mammary epithelial cells (MTT),[2],no effect
same,cell viability of the unsorted / unseparated population,[3],massive cell death
same,cell viability of the unsorted / unseparated population,[3]; listed as repertaxin,decrease in cell viability
same,cell viability of the CXCR1-negative population,[3]; sorted SUM159 cells,no effect
same,cell viability of the CXCR1-positive population,[3]; sorted SUM159 cells,decreased cell viability
same,cell viability of the CXCR1-positive population,"[3]; sorted SUM159 cells, listed as repertaxin",decrease in cell viability
same,cells with membranous phospho-FAK expression in treated tumors,phospho-FAK,abolished; also recorded: no expression was detected
same,FAK Tyr397 and AKT Ser473 phosphorylation (western blot),[4],No modification
same,ALDEFLUOR-positive population,[5],np any effect
same,metastasis formation (normalized photon flux),SUM159 cells,statistically significant increase of metastasis formation in the group of mice treated with saline solution; also recorded: significantly reduced metastasis formation; also recorded: reduces the metastatic potential
same,metastasis formation (normalized photon flux),SUM159 cells; listed as repertaxin,statistically significant decrease in metastasis formation
same,reduction in tumor growth in secondary mice compared to cells from control or docetaxel-treated animals,[6]; equal numbers of cells injected,2-5 fold
same,Tumors/Injections,[6]; number of cells injected 100,0/9
same,Tumors/Injections,[6]; number of cells injected 250,0/2
same,Tumors/Injections,[6]; number of cells injected 500,1/3
same,Tumors/Injections,"[6]; number of cells injected 1,000",4/8
same,Tumors/Injections,"[6]; number of cells injected 2,500",2/2
same,Tumors/Injections,"[6]; number of cells injected 5,000",2/2
same,Tumors/Injections,"[6]; number of cells injected 10,000",4/4
same,secondary tumor formation / regrowth from serial dilutions of treated primary tumors,[6],reduced tumor growth in secondary recipients; also recorded: only higher numbers of cells
same,secondary tumor formation / regrowth from serial dilutions of treated primary tumors,[6]; listed as Reperatxin,delayed secondary tumors which were significantly smaller in size
same,tumor size / tumor growth compared to the control,[7],moderate impact on tumor growth
same,tumor size / tumor growth compared to the control,[7]; listed as Reperataxin,no significant difference
same,tumor size / tumor growth compared to the control,[7]; listed as repertaxin,no difference
